Data set [1] deals with hippocampal CA1 pyramidal cells. The data set can be described thus: Global cerebral ischemia in rats (4 vessel occlusion), surviving CA1 neurons by Nissl staining. In kind it is in vivo, male Wistar rats. The protocol:
Cerebral ischemia was induced by four-vessel-occlusion (4VO) in male Wistar rats (250-280 g). Both vertebral arteries were occluded by electrocauterization in pentobarbital anesthesia (60 mg/kg i.p.). The animals were allowed to recover for 24 hours with free access to water but not food. The next day the carotid arteries were exposed under 2% halothane in 30% oxygen/70% nitrous oxide anesthesia and were occluded for 10 minutes using microvascular claps. Subsequently, both clamps were removed and both arteries were inspected for immediate reperfusion. During the operation and the following 3 hours normothermia of the animals (37.5Γ0.5° C.) was maintained by using a thermostatically controlled heating blanket connected to a rectal thermometer. For control, in sham-operated animals both vertebral arteries were cauterized in pentobarbital anesthesia and both common carotid arteries were exposed but not clamped under 2% halothane in 30% oxygen/70% nitrous oxide anesthesia the following day. The wound was treated with lidocaine gel and then sutured. The animals were kept under a heating lamp at 30° C. environmental temperature until they regained consciousness.
Seven groups of animals were investigated: • 1. (n=8) steroid compound, 7β-OH EPIA (0.1 mg/kg, i.v. via tail vein, three injections: 15 minutes prior to the induction of ischemia, during ischemia and 5 minutes after reperfusion); • 2. (n=8) steroid compound, 7β-OH EPIA (0.3 mg/kg, i. v. three injections as described in 1.); • 3. (n=8) steroid compound, 7β-OH EPIA (1 mg/kg, i. v., three injections as described in 1.); • 4. (n=8) NBQX (disodium salt, because more water soluble) as reference substance and positive control (TOCRIS, Germany, 30 mg/kg, i. p., three injections as described in 1.); • 5. (n=8) received vehicle (0.9% NaCl, containing 100 μl Ethanol) three injections as described in 1.); • 6. (n=8) ischemia alone; • 7. (n=8) sham operated controls.
The substances were dissolved in 100 μl Ethanol and finally diluted with 0.9% NaCl.
After a survival time of 7 days after ischemia, all animals were perfusion fixed transcardially with 4% paraformaldehyde. The brains were then removed carefully and postfixed in the same fixative for 2 hours. After cryoprotection in 30% sucrose, the brains were rapidly frozen in isopentane and stored at −80° C. Twenty-micrometer cryostat sections comprising the hippocampal formation were Nissl stained with toluidine blue or NeuroTrace fluorescence.
The severity of neuronal damage in the hippocampal CA1 region after ischemia was evaluated by the number of surviving neurons using Nissl staining. The mean number of morphologically intact neurons per 400 μm length was calculated in CA1 region for each group. […] The data were statistically analyzed by paired Student's t-test. […]

Data set [2] relates to CA1 cell layer of organotypic hippocampal slice cultures. The experiment in a line: Hypoxic neuronal damage in organotypic hippocampal slice cultures (PI fluorescence in CA1). In kind it is cell-based, Wistar rat. The settings on record: for reduction of hypoxic CA1 damage (in words): present pre-. The procedure:
Organotypic hippocampal slice cultures were prepared using the basic method of Pringle et al (1996, 1997) modified as follows:
Wistar rat pups (8-11 days old) were decapitated and the hippocampus rapidly dissected into ice-cold Gey's balanced salt solution supplemented with 4.5 mg/ml glucose. Slices were separated and plated onto Millicell CM culture inserts (4 per well) and maintained at 37° C./5% CO2 for 14 days. Maintenance medium consisted of 25% heat-inactivated horse serum, 25% Hank's balanced salt solution (HBSS) and 50% minimum essential medium with added Earle's salts (MEM) supplemented with 1 mM glutamine and 4.5 mg/ml glucose. Medium was changed every 3-4 days.
Experimental hypoxia was performed as described previously (Pringle et al., 1996; 1997). Briefly, cultures were transferred to serum free medium (SFM—75% MEM, 25% HBSS supplemented with 1 mM glutamine and 4.5 mg/ml glucose) containing 5 μg/ml of the fluorescent exclusion dye propidium iodide (PI). Cultures were allowed to equilibrate in SFM for 60 minutes prior to imaging. PI fluorescence was detected using a Leica inverted microscope fitted with a rhodamine filter set. Any cultures in which PI fluorescence was detected at this stage were excluded from further study. Hypoxia was induced by transferring cultures to SFM (+PI) which had been saturated with 95%N2/5%CO2. Culture plates (without lids) were then sealed into an airtight chamber in which the atmosphere was saturated with 95%N2/5%CO2 by continuously blowing through gas at 10 L/min for ten minutes before being sealed and placed in the incubator for 170 mins (total time of hypoxia was therefore 180 mins). At the end of the hypoxic period cultures were returned to normoxic SFM containing PI and placed back in the incubator for 24 hours.
Neuronal damage was assessed as described previously (Pringle et al., 1996; 1997) using either NIH Image 1.60 running on an Apple IIsi computer or OpenLab 2.1 (Improvision) running on a Macintosh G4/400. Images were captured using a monochrome camera and saved onto optical disk for offline analysis. Light transmission images were captured prior to the addition of drugs, and PI fluorescence images recorded at the end of the 24-hour post-hypoxia recovery period. The area of the CA1 cell layer was determined from the transmission image. The area of PI fluorescence in CA1 was measured using the density slice function within NIH image or Openlab, and neuronal damage expressed as the percentage of the CA1 in which PI fluorescence was detected above background.
Steroid compounds were prepared by making an initial 1 mg/ml solution in ethanol and further diluting down in SFM. Compounds were added to the cultures for 45 minutes prior to hypoxia, during the hypoxic episode and during the post-hypoxic recovery period. Control experiments consisted of cultures treated with vehicle alone.

[3] abbreviates: Experiment 1, 100 nM, compound present pre-, during and post-hypoxia, control hypoxia 25.5 ± 6.4.
The mark [4] stands for this setting: Experiment 1, 100 nM, during and post-hypoxia.
The mark [5] stands for this setting: Experiment 2, 1 nM, control hypoxia 31.9 ± 4.7.
Setting [6] is: Experiment 2, 10 nM, control hypoxia 31.9 ± 4.7.
Where [7] appears, read: Experiment 2, 100 nM, control hypoxia 31.9 ± 4.7.

Take `CC12CCC3C(C1CCC2=O)[C@@H](O)C[C@H]1C[C@@H](O)CCC31C` (stereo partly drawn) [7βOH-EPIA, 7β-hydroxyepiandrosterone]: the “neuroprotective effect on CA1 pyramidal cells compared to the sham operated group” value in data set [1] (0.1 mg/kg i.v., three injections, 10 min global ischemia, 7 days survival, p=0.01) is on record as 74.8%; in data set [1] (0.3 mg/kg i.v., three injections, 10 min global ischemia, 7 days survival, p=0.0008), 83.9%. Besides, the “neuroprotective effect on CA1 pyramidal cells (in words)” value in data set [1] (1.0 mg/kg i.v., three injections, 10 min global ischemia, 7 days survival) is “only a tendency to neuroprotection, but the effect was not significant”. Moreover, in data set [1] (injected i.v. prior, during and after ischemia, all experiments), the “behavioral abnormalities of the animals” value was “never observed any behavioral abnormalities”. In addition, the “% Damage in CA1” value in data set [2] (setting [3]) was 9.0 ± 4.7 %; in data set [2] (setting [5]), 20.6 ± 7.2%; in data set [2] (setting [6]) it was 11.9 ± 4.7 %; in data set [2] (setting [7]), 14.3 ± 5.0 %. The “reduction of hypoxic CA1 damage (in words)” value in data set [2] (setting [4]) is given as “significantly reduced”. In addition, the “neuroprotective effect against hypoxic damage (in words)” value in data set [2] (Experiment 2, 1 nM) is reported as “activity was lost”; in data set [2] (Experiment 2, 10 nM), “significantly neuroprotective”; in data set [2] (Experiment 2, 100 nM), “significantly neuroprotective”.
Regarding `CC12CCC3C(C1CCC2=O)[C@H](O)C[C@H]1C[C@@H](O)CCC31C` (stereo partly drawn) [7αOH-EPIA, 7α-Hydroxy-EPIA], the “% Damage in CA1” value was 4.0 ± 2.9 % in data set [2] (setting [3]), 28.8 ± 5.8% in data set [2] (setting [5]), 21.9 ± 8.1% in data set [2] (setting [6]) and 11.8 ± 2.8 % in data set [2] (setting [7]). Besides, the “reduction of hypoxic CA1 damage (in words)” value in data set [2] (setting [4]) is given as “significantly reduced”. For the same molecule, the “neuroprotective effect against hypoxic damage (in words)” value is reported as “no effect” in data set [2] (Experiment 2, 1 nM); “not-statistically significant reduction” in data set [2] (Experiment 2, 10 nM); “significantly protective” in data set [2] (Experiment 2, 100 nM).

The values above are taken from patent US7718639B2, “7-hydroxyepiandrosterone having neuroprotective activity” (Hunter-Fleming Limited, priority 2000, dated 2010).
